# Reference: patent publication US4211772A, “Benzopyran glycoside acetals and ketals” (Laboratoires Sarget, priority 1977, dated 1980)
# Read-outs that look alike come from different tables or passages of the source.
# Legend:
# galactosemic cataract = test: Galactosemic cataract in rats; assay type: in vivo, weaning male EOPS Wistar rats; conditions: 100 mg/kg/d i.p.
# Procedure: GALACTOSEMIC CATARACT IN RATS
# The study was conducted using weaning male EOPS Wistar rats having an initial weight of between 45 and 50 g. The animals were fed a high vitamin and high protein regimen containing 20% by weight of galactose. The first signs of cataracts, detected by the ophthalmoscope, appeared beginning with the third day. The animals received daily i.p. doses of the test compound, the treatment being started four days after the commencement of the galactosemic regimen. The evolution of the cataract was followed by the detection of maroon rings visible in the ophthalmoscope. These rings appeared on the external edge of the lens and progressed little by little to its center. Anatomopathological studies of the lenses confirmed that these brown rings correspond well to the characteristic histological lesions of galactosemic cataracts. Photographs taken with the aid of a retinograph facilitated the comparison of the evolution of the lesions.
# Statistical calculations according to the .chi.^2 method permit an evaluation of the significance of the results obtained for each of the treatments compared to those for non-treated animals.
# Solubilities in water = assay type: physicochemical; conditions: for solubility: water, read-out: Solubilities in water
# Aldose Reductase = target: T1, Aldose Reductase (Bos taurus, UniProt P16116); test: Inhibition of aldose reductase in vitro (enzyme from beef eye lenses, glyceraldehyde substrate); assay type: biochemical; conditions: in DMF solution, read-out: percentages of inhibition (aldose reductase); for inhibition at 100 µM: 10^-4 mole/l; for inhibition at 10 µM: 10^-5 mole/l
# T1 construct: The enzyme is extracted from beef eye lenses; from tissue; host or cells: beef eye lenses
# Source text: Inhibition of Aldose Reductase In Vitro
# The reoxidation of NADPH coupled to the enzymatic reaction was followed spectrophotometrically at 340 nm.
# carragenin edema = test: Anti-inflammatory activity: carragenin edema test; assay type: in vivo; conditions: Rattus norvegicus, ip, saturated bicarbonate solution, read-out: % inhibition of carragenin edema; for inhibition in vivo at 75 mg/kg: 75 mg/kg i.p.; for inhibition in vivo at 150 mg/kg: 150 mg/kg i.p.
# Procedure: Anti-inflammatory activity
# This was determined by the carragenin edema test using male Wistar EOPS rats. Inflammation was induced by the injection of 0.1 ml of a suspension of 5% carragenin in physiological serum into the muscular bundle of the metatarsal region of the posterior paw of the animal. The test substance was administered i.p. in neutralized solution at the same time as the carragenin.
# Edema was measured by plethysmometry at different times after the administration of the carragenin.
# Tables IV and V show the percentages of inhibition as a function of time and of dosage for certain compounds of the present invention.
# The above results were obtained for solutions of substantially alkaline
# The reference experiments were performed using physiological serum brough
# to a pH approximately the same as the pH of the solutions to be tested.
# capillary permeability = test: Capillaroprotecting effects: capillary permeability; assay type: in vivo, conventional male Wistar rats
# Procedure: (§1) Capillaroprotecting effects
# The capillary permeability was determined by the method of Charlier et al, Arch. Inter. Physiol.
# capillary resistance = test: Capillaroprotecting effects: capillary resistance; assay type: in vivo, male OFA EOPS rats
# Procedure: as §1
# The capillary resistance was determined by a variant of the method of Charlier et al, Arch. Inter. Physiol.
compound,measurement,setting,value
"O=c1c(O[C@@H]2O[C@H](CO[C@@H]3OC[C@H](O)[C@H](O)[C@H]3O)[C@@H](O)[C@H](O)[C@H]2O)c(-c2ccc(O)c(O)c2)oc2cc(O)cc(O)c12 [3-Vicianosyl quercetin, reference compound]",percentage of animals which have not yet shown the appearance of cataracts,galactosemic cataract; day 0,100%
same,percentage of animals which have not yet shown the appearance of cataracts,galactosemic cataract; day 1,100%
same,percentage of animals which have not yet shown the appearance of cataracts,galactosemic cataract; day 2,97%
same,percentage of animals which have not yet shown the appearance of cataracts,galactosemic cataract; day 3,59%
same,percentage of animals which have not yet shown the appearance of cataracts,galactosemic cataract; day 4,40%
same,significance compared to non-treated animals (chi^2),galactosemic cataract; day 4,S
same,percentage of animals which have not yet shown the appearance of cataracts,galactosemic cataract; day 5,31%
same,significance compared to non-treated animals (chi^2),galactosemic cataract; day 5,S
same,percentage of animals which have not yet shown the appearance of cataracts,galactosemic cataract; day 6,12%
same,significance compared to non-treated animals (chi^2),galactosemic cataract; day 6,S
same,percentage of animals which have not yet shown the appearance of cataracts,galactosemic cataract; day 10,9%
same,percentage of animals which have not yet shown the appearance of cataracts,galactosemic cataract; day 12,19%
same,significance compared to non-treated animals (chi^2),galactosemic cataract; day 12,S
same,percentage of animals which have not yet shown the appearance of cataracts,galactosemic cataract; day 16,22%
same,significance compared to non-treated animals (chi^2),galactosemic cataract; day 16,S
same,percentage of animals which have not yet shown the appearance of cataracts,galactosemic cataract; day -4,100%
same,solubility,Solubilities in water,330 µg/mL
"O=c1ccc2cc(O[C@@H]3O[C@H](CO)[C@@H](O)[C@H](O)[C@H]3O)c(O)cc2o1 [Esculin, reference compound]",inhibition at 100 µM,Aldose Reductase,16%
same,solubility,Solubilities in water,1700 µg/mL
"O=c1c(O[C@@H]2O[C@H](CO)[C@@H](O)[C@H](O)[C@H]2O)c(-c2ccc(O)c(O)c2)oc2cc(O)cc(O)c12 [Isoquercitrin, reference compound]",Solubilities in water,Solubilities in water,insoluble
same,inhibition in vivo at 75 mg/kg,carragenin edema; 1/2 h,28%
same,inhibition in vivo at 150 mg/kg,carragenin edema; 1/2 h,30%
same,inhibition in vivo at 75 mg/kg,"carragenin edema; 1 h, 1 h",32%
same,inhibition in vivo at 150 mg/kg,"carragenin edema; 1 h, 1 h",40%
same,inhibition in vivo at 75 mg/kg,"carragenin edema; 2 h, 2 h",18%
same,inhibition in vivo at 150 mg/kg,"carragenin edema; 2 h, 2 h",37%
same,inhibition in vivo at 75 mg/kg,"carragenin edema; 3 h, 3 h",28%
same,inhibition in vivo at 150 mg/kg,"carragenin edema; 3 h, 3 h",18%
same,inhibition in vivo at 75 mg/kg,"carragenin edema; 4 h, 4 h",22%
same,inhibition in vivo at 150 mg/kg,"carragenin edema; 4 h, 4 h",9%
same,inhibition in vivo at 75 mg/kg,"carragenin edema; 5 h, 5 h",23%
same,inhibition in vivo at 150 mg/kg,"carragenin edema; 5 h, 5 h",9%
same,inhibition in vivo at 75 mg/kg,"carragenin edema; 6 h, 6 h",25%
same,inhibition in vivo at 150 mg/kg,"carragenin edema; 6 h, 6 h",6%
"CC1(C)O[C@@H]2[C@@H](O)[C@H](OC[C@H]3O[C@@H](Oc4c(-c5ccc(O)c(O)c5)oc5cc(O)cc(O)c5c4=O)[C@H](O)[C@@H](O)[C@@H]3O)OC[C@@H]2O1 [No. 4, 3-O-(3,4-O,O-isopropylidene-6-α-L-arabinosyl-β-D-glucosyl)-quercetin]",inhibition at 100 µM,Aldose Reductase,42%
same,inhibition at 10 µM,Aldose Reductase,0%
same,solubility,Solubilities in water,600 µg/mL
"CC1(C)OC[C@H]2O[C@@H](Oc3c(-c4ccc(O)c(O)c4)oc4cc(O)cc(O)c4c3=O)[C@H](O)[C@@H](O)[C@@H]2O1 [No. 5, 3-O-(4,6-O,O-isopropylidene-β-D-glucosyl)-quercetin]",percentage reduction of capillary permeability,capillary permeability; 50 mg/kg i.p.,11%
same,percentage reduction of capillary permeability,capillary permeability; 100 mg/kg i.p.,34%
same,percentage reduction of capillary permeability,capillary permeability; 200 mg/kg i.p.,28%
same,inhibition at 100 µM,Aldose Reductase,83%
same,inhibition at 10 µM,Aldose Reductase,56%
same,inhibition at 1 µM,Aldose Reductase; 10^-6 mole/l,0%
same,solubility,Solubilities in water,< 100 µg/mL
same,% of animals for which the effect is ≥ 25 u cm Hg/h,capillary resistance; 50 mg/kg i.p.,60%
same,"capillary resistance, effect observed",capillary resistance; 50 mg/kg i.p.,28 ± 9.8 u cm Hg/h
same,% of animals for which the effect is ≥ 25 u cm Hg/h,capillary resistance; 100 mg/kg i.p.,80%
same,"capillary resistance, effect observed",capillary resistance; 100 mg/kg i.p.,32.25 ± 11.4 u cm Hg/h
same,% of animals for which the effect is ≥ 25 u cm Hg/h,capillary resistance; 200 mg/kg i.p.,80%
same,"capillary resistance, effect observed",capillary resistance; 200 mg/kg i.p.,37 ± 16.1 u cm Hg/h
